Earlier results as cited in US20100210719A1, “O-DESMETHYLVENLAFAXINE” (DR. REDDY'S LABORATORIES LTD., priority 2007, published 2010).

Conditions: inferred from the major DSC endotherm at about 120° C. and Tg onset at 18° C. reported in U.S. Pat. No. 6,673,838

**Q.** Which “stability of the amorphous form” value does the source give for CN(C)CC(c1ccc(O)cc1)C1(O)CCCCC1 (stereo not shown) [desvenlafaxine succinate] here?
**A.** highly unstable
